Measured values: ChEMBL document CHEMBL3351515, “α-Hexylcinnamaldehyde inhibits the genotoxicity of environmental pollutants in the bacterial reverse mutation assay” (2014)

Experiments:
Salmonella typhimurium [1] = assay: Antimutagenic activity against sodium azide-induced revertant colonies in Salmonella typhimurium TA100 assessed as number of revertant colonies measured post-treatment at 180 uM (reference value: 1909 +/- 29.7) in absence of mammalian S9 fraction; format: functional, Salmonella enterica subsp. enterica serovar Typhimurium
Salmonella typhimurium [2] = assay: Antimutagenic activity against 2-aminoanthracene-induced revertant colonies in Salmonella typhimurium TA100 assessed as number of revertant colonies measured pretreatment at 18 uM (reference value: 481.3 +/- 5.3) in presence of mammalian S9 fraction; format: functional, Salmonella enterica subsp. enterica serovar Typhimurium
Salmonella typhimurium [3] = assay: Antimutagenic activity against 1-nitropyrene-induced revertant colonies in Salmonella typhimurium TA98 1,8 DNP assessed as inhibition of mutagenicity measured at 9 to 18 uM; format: functional, Salmonella enterica subsp. enterica serovar Typhimurium
Salmonella typhimurium [4] = assay: Antimutagenic activity against 2-aminoanthracene-induced revertant colonies in Salmonella typhimurium TA100 assessed as number of revertant colonies measured pretreatment at 9 uM (reference value: 481.3 +/- 5.3) in presence of mammalian S9 fraction; format: functional, Salmonella enterica subsp. enterica serovar Typhimurium
Escherichia coli [5] = assay: Antimutagenic activity against 2-aminoanthracene-induced revertant colonies in Escherichia coli WP2uvrA assessed as number of revertant colonies measured cotreatment at 180 uM (reference value: 366 +/- 10.3) in presence of mammalian S9 fraction; format: functional
Escherichia coli [6] = assay: Antimutagenic activity against 2-aminoanthracene-induced revertant colonies in Escherichia coli WP2uvrA assessed as number of revertant colonies measured cotreatment at 90 uM (reference value: 366 +/- 10.3) in presence of mammalian S9 fraction; format: functional
Salmonella typhimurium [7] = assay: Antimutagenic activity against 1-nitropyrene-induced revertant colonies in Salmonella typhimurium TA98NR assessed as inhibition of mutagenicity measured at 9 to 18 uM; format: functional, Salmonella enterica subsp. enterica serovar Typhimurium
Escherichia coli [8] = assay: Antimutagenic activity against methyl methansulfonate-induced revertant colonies in Escherichia coli WP2uvrA assessed as number of revertant colonies measured post-treatment at 18 uM (reference value: 726.7 +/- 12.7) in absence of mammalian S9 fraction; format: functional
Escherichia coli [9] = assay: Antimutagenic activity against methyl methansulfonate-induced revertant colonies in Escherichia coli WP2uvrA assessed as number of revertant colonies measured cotreatment at 900 uM (reference value: 485.3 +/- 17.5) in absence of mammalian S9 fraction; format: functional
Escherichia coli [10] = assay: Antimutagenic activity against 2-aminoanthracene-induced revertant colonies in Escherichia coli WP2uvrA assessed as number of revertant colonies measured post-treatment at 18 uM (reference value: 308 +/- 4) in presence of mammalian S9 fraction; format: functional
Escherichia coli [11] = assay: Antimutagenic activity against methyl methansulfonate-induced revertant colonies in Escherichia coli WP2uvrA assessed as number of revertant colonies measured cotreatment at 9 uM (reference value: 485.3 +/- 17.5) in absence of mammalian S9 fraction; format: functional
Salmonella typhimurium [12] = assay: Antimutagenic activity against 1-nitropyrene-induced revertant colonies in Salmonella typhimurium TA98NR assessed as inhibition of mutagenicity measured at 90 to 180 uM; format: functional, Salmonella enterica subsp. enterica serovar Typhimurium
Escherichia coli [13] = assay: Antimutagenic activity against 2-aminoanthracene-induced revertant colonies in Escherichia coli WP2uvrA assessed as number of revertant colonies measured pretreatment at 900 uM (reference value: 178.7 +/- 11.8) in presence of mammalian S9 fraction; format: functional
Salmonella typhimurium [14] = assay: Antimutagenic activity against 2-nitrofluorene-induced revertant colonies in Salmonella typhimurium TA98 assessed as inhibition of mutagenicity measured at 9 to 18 uM; format: functional, Salmonella enterica subsp. enterica serovar Typhimurium
Escherichia coli [15] = assay: Antimutagenic activity against methyl methansulfonate-induced revertant colonies in Escherichia coli WP2uvrA assessed as number of revertant colonies measured pretreatment at 18 uM (reference value: 466.7 +/- 40.4) in absence of mammalian S9 fraction; format: functional
Salmonella typhimurium [16] = assay: Antimutagenic activity against 2-nitrofluorene-induced revertant colonies in Salmonella typhimurium TA98 assessed as inhibition of mutagenicity measured at 90 to 180 uM; format: functional, Salmonella enterica subsp. enterica serovar Typhimurium
Salmonella typhimurium [17] = assay: Antimutagenic activity against 2-aminoanthracene-induced revertant colonies in Salmonella typhimurium TA100 assessed as number of revertant colonies measured cotreatment at 90 uM (reference value: 457.9 +/- 16.74) in presence of mammalian S9 fraction; format: functional, Salmonella enterica subsp. enterica serovar Typhimurium
Salmonella typhimurium [18] = assay: Antimutagenic activity against 2-aminoanthracene-induced revertant colonies in Salmonella typhimurium TA100 assessed as number of revertant colonies measured post-treatment at 180 uM (reference value: 642.7 +/- 2.7) in presence of mammalian S9 fraction; format: functional, Salmonella enterica subsp. enterica serovar Typhimurium

CCCCCC/C(C=O)=C\c1ccccc1
Activity (Salmonella typhimurium [1]): 1771 | Activity (Salmonella typhimurium [2]): 453.3 | inhibition (INH) (Salmonella typhimurium [3]): <25% | Activity (Salmonella typhimurium [4]): 465.3 | Activity (Escherichia coli [5]): 318.7 | Activity (Escherichia coli [6]): 334.3 | inhibition (INH) (Salmonella typhimurium [7]): <25% | Activity (Escherichia coli [8]): 524 | Activity (Escherichia coli [9]): 402.7 | Activity (Escherichia coli [10]): 292 | Activity (Escherichia coli [11]): 484 | inhibition (INH) (Salmonella typhimurium [12]): 25% | Activity (Escherichia coli [13]): 141.3 | inhibition (INH) (Salmonella typhimurium [14]): <25% | Activity (Escherichia coli [15]): 451.3 | inhibition (INH) (Salmonella typhimurium [16]): 25% | Activity (Salmonella typhimurium [17]): 408.5 | Activity (Salmonella typhimurium [18]): 520
